Experimental data: patent US20250136932A1, “COMPOSITIONS AND METHODS FOR CULTURING AND MAINTAINING TROPHOBLAST STEM CELLS” (NORTH CAROLINA STATE UNIVERSITY, priority 2022, published 2025)

Tests used:
[1] = tested on: CDX2+ hTSCs from CTBs from term placentas; experiment: Derivation and support of CDX2+ hTSCs from term placental CTBs; format: cell-based, human; conditions: component added to or exchanged in TSCM
Method: Differentiation of term CTBs to hTSCs. Term CTBs that were previously frozen were thawed directly into DTM7 medium, or TSCMUA medium (see, e.g., Table 1). To assess DTME medium, cells cultured in TSCMUA were passaged into DTME.
Culture of hTSCs. hTSCs were cultured in 2 ml of DTM7 at 37 C in 5% CO2. Culture medium was replaced every 2 days. When hTSCs reached 70-90% confluence, they were dissociated with TrypLE at 37° C. for 5-10 minutes and passaged to a new 6-well plate pre-coated with 3 μg/ml of vitronectin and 1 μg/ml of Laminin 521 at a 1:3-1:4 split ratio and were supplemented with Y-27632 upon passage to aid in single cell attachment. Cells were routinely passaged approximately every 4-6 days. hTSCs at passages 2+ (typically passage 5+) were used for analysis.
hTSC cell culture. hTSCs were cultured as previously described by Okae et al. with minor modifications. Additionally, similar protocols were used for the TSCMUA, DMT7, and DTME media described further herein. […]

CTB21126R+ term hTSCs = experiment: Immunofluorescence marker expression in term CTB-derived hTSCs; format: cell-based, human; conditions: term hTSCs switched from TSCM+UK5099+AlbuMAX to TSCM
Method: Immunofluorescence analysis. For immunofluorescence analysis, cells were grown on glass-bottom culture dishes coated with 3 μg/ml vitronectin and 1 μg/ml of Laminin 521. Cells were fixed either using 4% paraformaldehyde in PBS for 10 min, permeabilized with 0.5% Triton X-100 for 5 min and blocked in 3% BSA/PBS with 0.1% human IgG and 0.3% Triton X-100 for 1 hr. Cells were then incubated overnight with the primary antibody diluted in blocking buffer. The following primary antibodies were used: anti-KRT7 (SCB, 1:50), anti-KRT7 (CST, 1:500), rabbit anti-hCG (1:100), mouse anti-hCG (1:100), anti-YAP (1:200), anti-TFAP2C (1:400), anti-P63 (1:600), anti-GATA3 (1:500), anti-TEAD4 (1:250), anti-CDX2 (1:300), anti-VE-Cadherin (1:400), anti-HLA-G (1:300), anti-syncytin (1:50). Corresponding isotype controls (rabbit polyclonal IgG, rabbit XP IgG, mouse IgG1, and mouse IgG2a) were used at primary antibody concentrations. Alexa Fluor 488- or Alexa Fluor 647-conjugated secondary antibodies were used as secondary antibodies. Nuclei were stained with DAPI and all samples were imaged using a Zeiss LSM 710 or 880 laser scanning confocal microscope (Carl Zeiss, Germany).
Immunostaining. For immunofluorescence analysis, 3×10^4 cells were grown on 24-well glass bottom plates coated with 3 μg/ml of vitronectin and 1 μg/ml of Laminin 521. […]

N#CC(=Cc1cn(-c2ccccc2)c2ccccc12)C(=O)O [UK5099, α-cyano-β-(1-phenylindol-3-yl)-acrylate]
Role of component in hTSC derivation from term CTB [1]: necessary
Role of component in CDX2 expression (CTB21126R+ term hTSCs): important for CDX2 expression

lysophosphatidic acid [LPA]
Role of component in hTSC derivation from term CTB [1]: cannot replace AlbuMAX
